How the values were obtained:
[1] = Volume of distribution at steady state in Wistar Han rat at 1 mg/kg, iv; assay type: ADME, organism-based; conditions: in vivo, read-out: Vdss
Cytochrome P450 2B6 = biological target: T1, Cytochrome P450 2B6 (Homo sapiens, UniProt P20813); assay: Reversible inhibition of CYP2B6 in pooled human liver microsomes; assay type: ADME, Microsome
T1 sequence (P20813 whole entry): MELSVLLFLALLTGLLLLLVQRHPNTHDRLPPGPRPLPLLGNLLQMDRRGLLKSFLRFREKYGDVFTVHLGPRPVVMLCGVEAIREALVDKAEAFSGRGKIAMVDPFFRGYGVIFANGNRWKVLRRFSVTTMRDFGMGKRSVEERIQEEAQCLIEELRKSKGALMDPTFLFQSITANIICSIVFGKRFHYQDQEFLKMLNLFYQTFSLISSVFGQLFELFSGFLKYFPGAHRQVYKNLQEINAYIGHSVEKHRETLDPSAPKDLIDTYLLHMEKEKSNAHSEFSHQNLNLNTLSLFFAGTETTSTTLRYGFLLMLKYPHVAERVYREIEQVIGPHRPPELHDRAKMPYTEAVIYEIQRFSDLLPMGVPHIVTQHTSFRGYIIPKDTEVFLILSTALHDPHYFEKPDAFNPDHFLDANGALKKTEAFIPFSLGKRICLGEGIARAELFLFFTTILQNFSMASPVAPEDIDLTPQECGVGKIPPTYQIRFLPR

Cytochrome P450 2C19 = Cytochrome P450 2C19 (Homo sapiens, UniProt P33261); assay: Reversible inhibition of CYP2C19 in pooled human liver microsomes using 4-Hydroxymephenytoin as substrate incubated for 20 mins in presence of NADPH by HPLC-MS/MS analysis; assay type: ADME, Microsome
[2] = In vivo inhibition of DGAT2 in high fat/high cholesterol diet fed Sprague-Dawley rat model assessed as reduction in hepatic triglyceride level at 90 mg/kg, po administered twice daily for 7 days starting from day 14 post diet and measured 2 hrs post last dose relative to control; assay type: functional; set-up: scale not given: the % may be the effect or the level left; conditions: time 7 day
Rattus norvegicus [3] = assay: In vivo inhibition of DGAT2 in high fat/high cholesterol diet fed Sprague-Dawley rat model assessed as reduction in hepatic triglyceride level administered orally twice daily for 7 days starting from day 14 post diet and measured 2 hrs post last dose; assay type: functional, organism-based; conditions: dose 0.3-90 mg/kg, route po, time 7.0 day, DDE = dose-dependent effect
physchem = conditions: buffer, pH 7.4
Description: Lipophilicity, logD of compound at pH 7.4 by shake flask method

[4] = Half life in human; assay type: ADME
[5] = Oral bioavailability in cynomolgus monkey at 5 mg/kg; assay type: ADME, organism-based, Macaca fascicularis; conditions: in vivo
[6] = Genotoxicity in human TK6 cells by micronucleus test; assay type: toxicity, cell-based
[7] = Inhibition of [14C]-glycerol incorporation into triglycerides in human primary hepatocytes; assay type: functional, cell-based; conditions: hepatocyte
[8] = biological target: T2, Diacylglycerol O-acyltransferase 2 (Rattus norvegicus, UniProt Q5FVP8); assay: Inhibition of rat DGAT2 using [1-14C]decanoyl-CoA and 1,2-didecanoyl-sn-glycerol as substrates assessed as incorporation of [1-14C]decanoyl into triacylglycerol preincubated for 120 mins followed by substrate addition and measured after 40 mins by scintillation counting method
T2 sequence (Q5FVP8 whole entry): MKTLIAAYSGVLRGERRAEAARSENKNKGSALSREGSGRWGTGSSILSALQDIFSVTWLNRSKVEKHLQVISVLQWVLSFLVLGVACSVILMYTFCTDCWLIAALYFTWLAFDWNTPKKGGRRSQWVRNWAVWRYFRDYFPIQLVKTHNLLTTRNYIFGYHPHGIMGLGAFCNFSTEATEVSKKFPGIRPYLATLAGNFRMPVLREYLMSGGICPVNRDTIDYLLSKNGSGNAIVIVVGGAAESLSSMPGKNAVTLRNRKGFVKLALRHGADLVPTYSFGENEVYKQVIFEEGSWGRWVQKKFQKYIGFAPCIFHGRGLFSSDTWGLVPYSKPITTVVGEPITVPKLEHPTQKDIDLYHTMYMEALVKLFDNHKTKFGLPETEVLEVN

Cytochrome P450 2C9 = Cytochrome P450 2C9 (Homo sapiens, UniProt P11712); assay: Reversible inhibition of CYP2C9 in pooled human liver microsomes using 4-Hydroxydiclofenac as substrate incubated for 10 mins in presence of NADPH by HPLC-MS/MS analysis; assay type: ADME, Microsome
Rattus norvegicus [9] = assay: In vivo inhibition of DGAT2 in sucrose diet fed Sprague-Dawley rat assessed as reduction in triglyceride level administered as single oral dose and measured after 2 hrs; assay type: functional, organism-based; conditions: dose 0.3-90 mg/kg, DDE = dose-dependent effect
CYP3A4/5 = CYP3A4/5 (Homo sapiens, UniProt P08684+P20815); assay: Reversible inhibition of CYP3A4/5 in pooled human liver microsomes; assay type: ADME, Microsome
[10] = Plasma protein binding in human assessed as unbound fraction ratio at 2 uM; assay type: ADME, cell-free
Rattus norvegicus [11] = assay: In vivo inhibition of DGAT2 in high fat/high cholesterol diet fed Sprague-Dawley rat model assessed as reduction in plasma triglyceride level administered orally twice daily for 7 days starting from day 14 post diet and measured 2 hrs post last dose; assay type: functional, organism-based; conditions: dose 0.3-90 mg/kg, route po, time 7.0 day, DDE = dose-dependent effect
[12] = Half life in cynomolgus monkey at 1 mg/kg, iv; assay type: ADME, organism-based, Macaca fascicularis; conditions: in vivo
[13] = Drug metabolism in rat hepatocytes assessed as oxidation of THF ring mediated metabolite formation; assay type: ADME, cell-based, Hepatocyte
[14] = Toxicity in non-human primates assessed as development-limiting toxicity
[15] = Plasma clearance in Wistar Han rat at 1 mg/kg, iv; assay type: ADME, organism-based
[16] = Half life in Wistar Han rat at 5 mg/kg, po; assay type: ADME, organism-based; conditions: in vivo
[17] = Plasma clearance in cynomolgus monkey at 1 mg/kg, iv; assay type: ADME, organism-based, Macaca fascicularis
[18] = Apparent intrinsic clearance in cryopreserved human hepatocytes measured per million cells at 1 uM incubated for 4 hrs by LC-MS/MS analysis; assay type: ADME, cell-based, Hepatocyte; conditions: cryopreserved human hepatocytes, read-out: CLH
[19] = Drug metabolism in monkey hepatocytes assessed as O-deethylation mediated pyridin-3-ol mediated metabolite formation; assay type: ADME, cell-based, Macaca mulatta, Hepatocyte; conditions: rhesus monkey
[20] = Drug metabolism in monkey hepatocytes assessed as oxidation of THF ring mediated metabolite formation; assay type: ADME, cell-based, Macaca mulatta, Hepatocyte; conditions: rhesus monkey

Chain of Cytochrome P450 2C19 (P33261 whole entry): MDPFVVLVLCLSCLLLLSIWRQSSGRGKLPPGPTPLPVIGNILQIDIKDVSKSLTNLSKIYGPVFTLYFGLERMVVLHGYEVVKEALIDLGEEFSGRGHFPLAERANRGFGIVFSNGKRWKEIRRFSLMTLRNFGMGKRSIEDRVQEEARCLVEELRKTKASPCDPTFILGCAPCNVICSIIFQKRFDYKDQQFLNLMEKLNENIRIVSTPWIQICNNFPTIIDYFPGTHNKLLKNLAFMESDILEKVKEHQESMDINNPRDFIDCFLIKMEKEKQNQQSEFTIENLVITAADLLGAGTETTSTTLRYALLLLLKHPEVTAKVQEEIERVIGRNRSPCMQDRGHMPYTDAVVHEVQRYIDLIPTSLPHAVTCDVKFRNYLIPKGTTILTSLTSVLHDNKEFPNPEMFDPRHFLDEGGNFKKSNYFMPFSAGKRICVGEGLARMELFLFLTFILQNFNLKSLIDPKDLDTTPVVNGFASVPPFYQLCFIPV
Chain of Cytochrome P450 2C9 (P11712 whole entry): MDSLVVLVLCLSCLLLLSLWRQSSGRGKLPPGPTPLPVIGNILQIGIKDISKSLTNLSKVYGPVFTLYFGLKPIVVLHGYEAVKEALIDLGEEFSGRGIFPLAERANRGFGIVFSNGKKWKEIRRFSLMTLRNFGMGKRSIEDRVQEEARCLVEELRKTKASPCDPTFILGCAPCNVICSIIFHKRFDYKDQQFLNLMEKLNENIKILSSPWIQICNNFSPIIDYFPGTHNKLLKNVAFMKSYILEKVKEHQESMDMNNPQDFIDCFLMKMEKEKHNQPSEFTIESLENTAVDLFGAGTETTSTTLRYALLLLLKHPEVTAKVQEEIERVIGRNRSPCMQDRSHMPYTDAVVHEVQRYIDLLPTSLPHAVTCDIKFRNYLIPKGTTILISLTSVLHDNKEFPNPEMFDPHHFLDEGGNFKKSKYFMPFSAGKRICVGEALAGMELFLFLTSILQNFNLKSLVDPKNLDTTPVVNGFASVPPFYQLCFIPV

CCOc1cccnc1Oc1cncc(-c2ncc(C(=O)N[C@H]3CCOC3)cn2)c1 [PF-06865571]
Vd [1]: 0.9 L/kg | IC50 (Cytochrome P450 2B6): > 100 µM | IC50 (Cytochrome P450 2C19): 57 µM | Activity [2]: 49% | Activity (Rattus norvegicus [3]): Dde | logD (physchem): 1.9 | half-life [4]: 5 h | bioavailability [5]: 48% | Activity [6]: Non-Toxic | IC50 [7]: 0.00279 µM | IC50 [8]: 0.833 µM | IC50 (Cytochrome P450 2C9): 8.7 µM | inhibition (Rattus norvegicus [9]): Dde | IC50 (CYP3A4/5): > 100 µM | Ratio [10]: 0.353 | Activity (Rattus norvegicus [11]): Dde | half-life [12]: 1 h | Drug metabolism [13]: Metabolite_Detected | Activity [14]: Non-Toxic | clearance [15]: 3.66 L/h/kg | half-life [16]: 1 h | clearance [17]: 0.6 L/h/kg | hepatocyte CLint at 1 µM [18]: < 4 µL/min/1e6 cells | Drug metabolism [19]: Metabolite_Detected | Drug metabolism [20]: Metabolite_Detected
